In PMC4503722, “Novel Phenotypic Outcomes Identified for a Public Collection of Approved Drugs from a Publicly Accessible Panel of Assays” (PLoS ONE, 2015):
Like-named read-outs stand apart in the source and are kept apart here.

Assays:
Experiment in all cases: cells
Format in all cases: cell-based
Colo320 = tested on: Colo320
SW480 = tested on: SW480
HeLa cells = conditions: for Hela CellCycMod PI 2N IC50/EC50: assay number 14; for Hela CellCycMod PI 4N IC50/EC50: assay number 16; for Hela CellCycMod PI MI IC50/EC50: assay number 17; for Hela CellCycMod PI Cell Number IC50/EC50: assay number 18
HT-29 = tested on: HT-29
[1] = tested on: HCT116 cells treated with a GSK3β inhibitor
DLD-1 = tested on: DLD-1
SNU-C1 = tested on: SNU-C1
HCT116 = tested on: HCT116
RKO = tested on: RKO
[2] = assay number 26, GSK3b inhibitor pretreated

SMILES	GSK3b inh pretreated_Viability ATP HCT116 IC50/EC50 [1, 2]	Basal_Viability ATP HCT116 IC50/EC50 (HCT116; assay number 25, basal)	Basal_Viability ATP Colo 320 IC50/EC50 (Colo320; assay number 27, basal)	Basal_Viability ATP SW480 IC50/EC50 (SW480; assay number 24, basal)	Basal_Viability ATP HT-29 IC50/EC50 (HT-29; assay number 28, basal)	Basal_Viability ATP DLD-1 IC50/EC50 (DLD-1; assay number 23, basal)	Basal_Viability ATP SNU-C1 IC50/EC50 (SNU-C1; assay number 30, basal)	Basal_Viability ATP RKO IC50/EC50 (RKO; assay number 29, basal)	also measured
Cl.O=C1[C@H]2CCCC[C@H]2C(=O)N1CCCCN1CCN(c2nsc3ccccc23)CC1 [NCGC00164567-02]	1.6729 µM	2.0649 µM							Basal_Viability ATP Colo 320 IC50/EC50 (Colo320; assay number 27): 13.2075 µM; Basal_Viability ATP SW480 IC50/EC50 (SW480; assay number 24): 5.9082 µM; Hela CellCycMod PI 2N IC50/EC50 (HeLa cells): > 10 µM; Hela CellCycMod PI S Phase IC50/EC50 (HeLa cells; assay number 15, S phase): > 10 µM; Hela CellCycMod PI 4N IC50/EC50 (HeLa cells): > 10 µM; Hela CellCycMod PI MI IC50/EC50 (HeLa cells): > 10 µM; Hela CellCycMod PI Cell Number IC50/EC50 (HeLa cells): > 10 µM; Basal_Viability ATP HT-29 IC50/EC50 (HT-29; assay number 28): 2.0058 µM; Basal_Viability ATP DLD-1 IC50/EC50 (DLD-1; assay number 23): 8.238 µM; Basal_Viability ATP SNU-C1 IC50/EC50 (SNU-C1; assay number 30): 9.3713 µM; Basal_Viability ATP RKO IC50/EC50 (RKO; assay number 29): 0.5459 µM
CC[C@H]1CN2CCc3cc(OC)c(OC)cc3[C@@H]2C[C@@H]1C[C@H]1NCCc2cc(OC)c(OC)cc21 [NCGC00024379-16]	0.001 µM	0.06147 µM	0.0221 µM	0.001 µM	0.01634 µM	0.01158 µM	0.00228 µM	0.00831 µM	Hela CellCycMod PI 2N IC50/EC50 (HeLa cells): > 10 µM; Hela CellCycMod PI 4N IC50/EC50 (HeLa cells): > 10 µM; Hela CellCycMod PI MI IC50/EC50 (HeLa cells): 0.9477 µM; Hela CellCycMod PI Cell Number IC50/EC50 (HeLa cells): 0.03266 µM
Cc1cc2nc3c(=O)[nH]c(=O)nc-3n(C[C@H](O)[C@H](O)[C@H](O)COP(=O)([O-])OP(=O)([O-])OC[C@H]3O[C@@H](n4cnc5c(N)ncnc54)[C@H](O)[C@H]3O)c2cc1C.O.[Na+].[Na+] [NCGC00344578-01]	> 20 µM	> 20 µM	> 20 µM	> 20 µM	> 20 µM	> 20 µM	> 20 µM	> 20 µM	
C1CCC(C(CC2CCCCN2)C2CCCCC2)CC1.O=C(O)/C=C\C(=O)O (stereo not drawn) [NCGC00018261-06]									Basal_Viability ATP Colo 320 IC50/EC50 (Colo320): 8.8632 µM; Basal_Viability ATP SW480 IC50/EC50 (SW480): 5.7603 µM; Basal_Viability ATP HT-29 IC50/EC50 (HT-29): 6.8652 µM; GSK3b inh pretreated_Viability ATP HCT116 IC50/EC50 [1]: 7.4207 µM; Basal_Viability ATP DLD-1 IC50/EC50 (DLD-1): > 20 µM; Basal_Viability ATP SNU-C1 IC50/EC50 (SNU-C1): 2.48 µM; Basal_Viability ATP HCT116 IC50/EC50 (HCT116): > 20 µM; Basal_Viability ATP RKO IC50/EC50 (RKO): 7.8491 µM
Cc1ccc(C(=O)c2cc(O)c(O)c([N+](=O)[O-])c2)cc1 [NCGC00181767-03]	0.265 µM	2.292 µM	2.503 µM	4.644 µM	> 20 µM	6.142 µM	4.536 µM	1.876 µM	
CN(C)[C@@H](CCOc1cccc2ccccc12)c1ccccc1 [NCGC00253658-01]	9.8615 µM	> 20 µM							Basal_Viability ATP Colo 320 IC50/EC50 (Colo320; assay number 27): > 20 µM; Basal_Viability ATP SW480 IC50/EC50 (SW480; assay number 24): > 20 µM; Basal_Viability ATP HT-29 IC50/EC50 (HT-29; assay number 28): > 20 µM; Basal_Viability ATP DLD-1 IC50/EC50 (DLD-1; assay number 23): > 20 µM; Basal_Viability ATP SNU-C1 IC50/EC50 (SNU-C1; assay number 30): 12.8035 µM; Basal_Viability ATP RKO IC50/EC50 (RKO; assay number 29): 8.1098 µM
CCCCCCCCCCCCCCCCOP(=O)([O-])OCC[N+](C)(C)C [NCGC00095169-05]	1.476 µM	3.393 µM	1.49 µM	0.4782 µM	1.955 µM	1.23 µM	0.9649 µM	0.4372 µM	
CN1CCC(=C2c3ccccc3C=Cc3ccccc32)CC1 [NCGC00015252-12]	> 20 µM	> 20 µM	> 20 µM	5.9167 µM	> 20 µM	> 20 µM	10.7827 µM	11.2853 µM	
N#CC(C#N)=Cc1ccc(O)c(O)c1 [NCGC00016043-08]									IC50/EC50, Basal_Viability ATP Colo 320 (assay number 27) (Colo320; basal): 6.7406 µM; IC50/EC50, Basal_Viability ATP SW480 (assay number 24) (SW480; basal): > 20 µM; IC50/EC50, Basal_Viability ATP HT-29 (assay number 28) (HT-29; basal): > 20 µM; IC50/EC50, GSK3b inh pretreated_Viability ATP HCT116 (assay number 26) ([1]; GSK3b inh pretreated): > 20 µM; IC50/EC50, Basal_Viability ATP DLD-1 (assay number 23) (DLD-1; basal): > 20 µM; IC50/EC50, Basal_Viability ATP SNU-C1 (assay number 30) (SNU-C1; basal): > 20 µM; IC50/EC50, Basal_Viability ATP HCT116 (assay number 25) (HCT116; basal): > 20 µM; IC50/EC50, Basal_Viability ATP RKO (assay number 29) (RKO; basal): 3.7756 µM
